From article PMC11111408, “Concurrent inhibition of oncogenic and wild-type RAS-GTP for cancer therapy” (Nature, 2024)
Several values for one entry are separate records, joined by “and”; a condition that tells them apart may be missing. Equal entries are not always repeated. Where two headings read alike, the source gives them in different places.

Tests used:
[1] = tested on: AsPC-1 and NCI-H441 cells; test: pERK (MSD) and proliferation (CTG) in AsPC-1 and NCI-H441 cells, CYPA inhibitor co-treatment or PPIA KO; format: cell-based, human; conditions: for activity at 0.0037 µM / activity at 0.01111 µM / activity at 0.03333 µM / activity at 15.2 pM / activity at 45.7 pM / activity at 0.00041 µM / activity at 0.1 µM / activity at 0.3 µM / activity at 5.08 pM: Homo sapiens;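 as to Proliferation inhibition with CYPA inhibitor competition: luminescence as % of CYPA inhibitor-only control with 3 mM sanglifehrin A competitor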
[2] = tested on: Capan-1 cells; test: Cellular ERK phosphorylation (pERK); format: cell-based; conditions: Homo sapiens; Capan-1 (KRAS^G12V PDAC); (95% CI)

CCn1c(-c2cc(N3CCN(C4CC4)CC3)cnc2[C@H](C)OC)c2c3cc(ccc31)-c1csc(n1)C[C@H](NC(=O)[C@H]1[C@@H]3COC[C@@H]31)C(=O)N1CCC[C@H](N1)C(=O)OCC(C)(C)C2 [RMC-7977]
Proliferation, RMC-7977 with or without CYPA inhibitor (panel title not shown) ([1]; ASPC1, RMC-7977 alone, […], 5.08 pM): 94.1273
activity at 0.0037 µM ([1]; ASPC1, read-out: Proliferation inhibition in PPIA KO cells treated with RMC-7977, AsPC-1, 3.70 nM): 33%
activity at 0.01111 µM ([1]; ASPC1, read-out: Proliferation inhibition in PPIA KO cells treated with RMC-7977, AsPC-1, 11.11 nM): 17.6%
activity at 0.03333 µM ([1]; ASPC1, read-out: Proliferation inhibition in PPIA KO cells treated with RMC-7977, AsPC-1, 33.33 nM): 8.78%
activity at 15.2 pM ([1]; ASPC1, read-out: Proliferation, RMC-7977 with or without CYPA inhibitor (panel title not shown), ASPC1, RMC-7977 alone, 0.0152 nM): 102%
activity at 45.7 pM ([1]; ASPC1, read-out: Proliferation, RMC-7977 with or without CYPA inhibitor (panel title not shown), ASPC1, RMC-7977 alone, 0.0457 nM): 92.6%
activity at 0.00041 µM ([1]; ASPC1, read-out: Proliferation, RMC-7977 with or without CYPA inhibitor (panel title not shown), ASPC1, RMC-7977 alone, 0.41 nM): 84.8%
activity at 0.0037 µM ([1]; ASPC1, read-out: Proliferation, RMC-7977 with or without CYPA inhibitor (panel title not shown), ASPC1, RMC-7977 alone, 3.70 nM): 47.4%
activity at 0.01111 µM ([1]; ASPC1, read-out: Proliferation, RMC-7977 with or without CYPA inhibitor (panel title not shown), ASPC1, RMC-7977 alone, 11.11 nM): 29.5%
activity at 0.03333 µM ([1]; ASPC1, read-out: Proliferation, RMC-7977 with or without CYPA inhibitor (panel title not shown), ASPC1, RMC-7977 alone, 33.33 nM): 12.8%
activity at 0.1 µM ([1]; ASPC1, read-out: Proliferation, RMC-7977 with or without CYPA inhibitor (panel title not shown), ASPC1, RMC-7977 alone, 100.00 nM): 7.14%
activity at 0.3 µM ([1]; ASPC1, read-out: Proliferation, RMC-7977 with or without CYPA inhibitor (panel title not shown), ASPC1, RMC-7977 alone, 300.00 nM): 14.9%
activity at 5.08 pM ([1]; ASPC1, read-out: Proliferation, RMC-7977 with or without CYPA inhibitor (panel title not shown), ASPC1, RMC-7977 alone, […]): 101%
activity at 0.00041 µM ([1]; ASPC1, read-out: pERK inhibition in PPIA KO cells treated with RMC-7977, AsPC-1, 0.41 nM): 85.8%
activity at 5.08 pM ([1]; ASPC1, read-out: pERK inhibition in PPIA KO cells treated with RMC-7977, AsPC-1, […]): 109%
activity at 0.0037 µM ([1]; ASPC1, read-out: pERK inhibition in PPIA KO cells treated with RMC-7977, AsPC-1 PPIA KO, 3.70 nM): 109%
activity at 0.01111 µM ([1]; ASPC1, read-out: pERK inhibition in PPIA KO cells treated with RMC-7977, AsPC-1 PPIA KO, 11.11 nM): 110%
activity at 15.2 pM ([1]; NCI-H441, read-out: Proliferation inhibition in PPIA KO cells treated with RMC-7977, NCI-H441, 0.0152 nM): 124%
activity at 45.7 pM ([1]; NCI-H441, read-out: Proliferation inhibition in PPIA KO cells treated with RMC-7977, NCI-H441, 0.0457 nM): 124%
activity at 0.0037 µM ([1]; NCI-H441, read-out: Proliferation inhibition in PPIA KO cells treated with RMC-7977, NCI-H441, 3.70 nM): 33%
activity at 0.01111 µM ([1]; NCI-H441, read-out: Proliferation inhibition in PPIA KO cells treated with RMC-7977, NCI-H441, 11.11 nM): 24.4%
activity at 0.03333 µM ([1]; NCI-H441, read-out: Proliferation inhibition in PPIA KO cells treated with RMC-7977, NCI-H441, 33.33 nM): 22.2%
activity at 0.1 µM ([1]; NCI-H441, read-out: Proliferation inhibition in PPIA KO cells treated with RMC-7977, NCI-H441, 100.00 nM): 23.6%
activity at 0.3 µM ([1]; NCI-H441, read-out: Proliferation inhibition in PPIA KO cells treated with RMC-7977, NCI-H441, 300.00 nM): 27.5%
activity at 5.08 pM ([1]; NCI-H441, read-out: Proliferation inhibition in PPIA KO cells treated with RMC-7977, NCI-H441, […]): 120%
activity at 0.00041 µM ([1]; NCI-H441, read-out: pERK inhibition in PPIA KO cells treated with RMC-7977, NCI-H441, 0.41 nM): 88.1%
activity at 0.0037 µM ([1]; NCI-H441, read-out: pERK inhibition in PPIA KO cells treated with RMC-7977, NCI-H441, 3.70 nM): 11.8%
Proliferation inhibition with CYPA inhibitor competition ([1]; NCI-H441, RMC-7977 0.0152 nM): 112.235 and 120.202
pERK signal remaining (% of control) with CYPA inhibitor competition ([1]; NCI-H441, RMC-7977 0.0152 nM): 101.09 and 141.742 and 99.9715 and 108.212
Proliferation inhibition with CYPA inhibitor competition ([1]; NCI-H441, RMC-7977 0.0457 nM): 127.307 and 133.477
pERK signal remaining (% of control) with CYPA inhibitor competition ([1]; NCI-H441, RMC-7977 0.0457 nM): 116.541 and 138.344 and 94.9151 and 96.9475
Proliferation inhibition with CYPA inhibitor competition ([1]; NCI-H441, RMC-7977 0.41 nM): 83.6742 and 95.5735 and 83.4726 and 112.168
Proliferation inhibition with CYPA inhibitor competition ([1]; NCI-H441, RMC-7977 3.70 nM): 34.5277 and 37.2472 and 40.6838 and 40.7762
pERK signal remaining (% of control) with CYPA inhibitor competition ([1]; NCI-H441, RMC-7977 3.70 nM): 11.9888 and 19.4005 and 10.392 and 10.3218
Proliferation inhibition with CYPA inhibitor competition ([1]; NCI-H441, RMC-7977 11.11 nM): 26.6151 and 22.9193 and 35.0508 and 37.4802
Proliferation inhibition with CYPA inhibitor competition ([1]; NCI-H441, RMC-7977 33.33 nM): 29.0347 and 22.8651 and 29.7232 and 34.4423
Proliferation inhibition with CYPA inhibitor competition ([1]; NCI-H441, RMC-7977 100.00 nM): 28.8791 and 27.2758 and 27.7958 and 31.2386
Proliferation inhibition with CYPA inhibitor competition ([1]; NCI-H441, RMC-7977 300.00 nM): 32.3111 and 29.0775 and 27.5922 and 25.4872
EC50 [2]: 0.421 nM
